Test results: patent publication US10689354B2, “Aminoazole derivative” (Teijin Pharma Limited, priority 2015, dated 2020)

What was measured:
[1] = biological target: T1, androgen receptor (AR-LBD) (Rattus norvegicus, UniProt P15207); experiment: Evaluation of androgen receptor affinity (PolarScreen Androgen Receptor Competitor Assay Kit, Red; fluorescence polarization); settings: 22° C. for 5 hours, relative to binding rate of 1 μM DHT, read-out: AR affinity (pEC50) (converted)
T1 construct: 5 μL of 2×AR-LBD/Fluoromone AL Red Complex contained in the kit; purchased Invitrogen
T1 sequence (P15207 651-882 limits assumed): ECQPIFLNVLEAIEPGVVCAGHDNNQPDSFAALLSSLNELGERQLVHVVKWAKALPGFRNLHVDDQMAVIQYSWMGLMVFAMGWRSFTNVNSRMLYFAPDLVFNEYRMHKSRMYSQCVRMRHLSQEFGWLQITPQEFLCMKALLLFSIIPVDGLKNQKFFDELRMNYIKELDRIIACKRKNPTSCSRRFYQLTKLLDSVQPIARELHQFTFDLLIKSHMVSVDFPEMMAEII
Method in brief: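 Compounds were mixed with AR-LBD/Fluoromone AL Red complex and incubated 5 h at 22° C before fluorescence polarization was read. Binding was expressed relative to 1 μM dihydrotestosterone, and pEC50 (concentration giving 50% of that binding) came from a 4-parameter fit.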

[2] = biological target: T2, human androgen receptor (Homo sapiens, UniProt P10275); experiment: Reporter assay of an androgen receptor responsive sequence (luciferase, transiently transfected HEK293 cells); format: cell-based; settings: 24 hours incubation, relative to activity of 100 nM DHT, read-out: AR transcriptive activity (pEC50) (converted)
T2 construct: expressed in transfected cells; host or cells: HEK293
T2 sequence (P10275 1-920): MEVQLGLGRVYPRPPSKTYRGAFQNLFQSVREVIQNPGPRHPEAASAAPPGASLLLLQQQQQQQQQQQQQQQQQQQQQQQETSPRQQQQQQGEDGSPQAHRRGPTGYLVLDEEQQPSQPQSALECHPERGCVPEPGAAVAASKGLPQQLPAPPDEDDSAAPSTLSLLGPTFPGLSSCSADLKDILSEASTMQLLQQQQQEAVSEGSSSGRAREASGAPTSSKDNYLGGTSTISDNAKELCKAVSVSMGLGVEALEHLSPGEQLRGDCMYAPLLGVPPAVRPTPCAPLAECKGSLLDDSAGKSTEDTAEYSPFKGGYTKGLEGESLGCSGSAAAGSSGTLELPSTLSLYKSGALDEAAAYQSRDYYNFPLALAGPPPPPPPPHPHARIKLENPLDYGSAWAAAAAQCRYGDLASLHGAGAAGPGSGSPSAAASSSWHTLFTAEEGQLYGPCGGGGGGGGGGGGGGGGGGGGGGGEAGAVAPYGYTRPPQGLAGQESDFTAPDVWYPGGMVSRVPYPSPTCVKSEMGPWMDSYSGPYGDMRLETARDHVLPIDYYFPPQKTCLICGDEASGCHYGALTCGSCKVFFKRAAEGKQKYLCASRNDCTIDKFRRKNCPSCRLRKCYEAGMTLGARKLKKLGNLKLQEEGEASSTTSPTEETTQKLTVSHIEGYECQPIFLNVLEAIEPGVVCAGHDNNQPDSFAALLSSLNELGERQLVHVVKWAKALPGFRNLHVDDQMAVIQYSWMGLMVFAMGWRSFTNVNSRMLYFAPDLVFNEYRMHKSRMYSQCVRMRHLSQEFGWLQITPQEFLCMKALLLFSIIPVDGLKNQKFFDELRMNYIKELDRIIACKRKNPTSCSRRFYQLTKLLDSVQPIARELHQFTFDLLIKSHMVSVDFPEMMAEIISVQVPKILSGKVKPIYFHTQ
Method in brief: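 HEK293 cells transiently transfected for 3 h with ARE-firefly luciferase, full-length human AR and TK-Renilla plasmids, then exposed to compound for 24 h at 37 °C in 5% charcoal-treated FBS/DMEM. Dual-Glo luminescence read; pEC50 from 4-parameter fit relative to 100 nM DHT.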

| SMILES | EC50 [1] [nM] | EC50 [2] [nM] |
| --- | --- | --- |
| Cc1oc(N(CCc2ccc(C#N)cc2)Cc2ccc(OC(F)F)cc2)nc1C(=O)NS(C)(=O)=O [Compound 553, 2-[2-(4-cyanophenyl)ethyl-[[4-(difluoromethoxy)phenyl]methyl]amino]-5-methyl-N-methylsulfonyl-oxazole-4-carboxamide] | 31.6 | 316 |
| Cc1oc(N(CCc2ccc(Cl)cc2)CC[C@@H]2CCCC[C@H]2O)nc1C(=O)NS(C)(=O)=O (racemic) [Compound 547, 2-[2-(4-chlorophenyl)ethyl-[2-[trans-2-hydroxycyclohexyl]ethyl]amino]-5-methyl-N-methylsulfonyl-oxazole-4-carboxamide] | 316 | 2510 |
| CCc1oc(N(Cc2ccc(OC(F)F)cc2)c2ccc(C#N)cc2)nc1C(=O)NS(C)(=O)=O [Compound 634, 2-[4-cyano-N-[[4-(difluoromethoxy)phenyl]methyl]anilino]-5-ethyl-N-methylsulfonyl-oxazole-4-carboxamide] | 39.8 | 398 |
| Cc1sc(N(Cc2csc(COc3ccccc3)n2)c2ccc(C#N)cc2)nc1C(=O)NS(C)(=O)=O [Compound 465, 2-[4-cyano-N-[[2-(phenoxymethyl)thiazol-4-yl]methyl]anilino]-5-methyl-N-methylsulfonyl-thiazole-4-carboxamide] | 25.1 | 794 |
| Cc1sc(N(CCC2CCCCC2)Cc2ccc(OC(F)(F)F)cc2)nc1C(=O)NS(=O)(=O)C1CC1 [Compound 734, 2-[2-cyclohexylethyl-[[4-(trifluoromethoxy)phenyl]methyl]amino]-N-cyclopropylsulfonyl-5-methyl-thiazole-4-carboxamide] | 1000 | > 10000 |
| Cc1sc(N(CCn2cc(C#N)cn2)Cc2ccc(Cl)cc2)nc1C(=O)NS(C)(=O)=O [Compound 736, 2-[(4-chlorophenyl)methyl-[2-(4-cyanopyrazol-1-yl)ethyl]amino]-5-methyl-N-methylsulfonyl-thiazole-4-carboxamide] | 200 | 501 |
| Cc1oc(N(CCc2ccc(Cl)cc2)Cc2ccc(C(F)(F)F)nc2)nc1C(=O)NS(C)(=O)=O [Compound 551, 2-[2-(4-chlorophenyl)ethyl-[[6-(trifluoromethyl)-3-pyridyl]methyl]amino]-5-methyl-N-methylsulfonyl-oxazole-4-carboxamide] | 39.8 | 501 |
| Cc1sc(N(Cc2cccc(-n3cccn3)c2)c2ccc(C#N)cc2)nc1C(=O)NS(C)(=O)=O [Example 219, 2-[4-cyano-N-[(3-pyrazol-1-ylphenyl)methyl]anilino]-5-methyl-N-methylsulfonyl-thiazole-4-carboxamide] | 63.1 | 1580 |
| CCc1oc(N(Cc2ccc(Br)cc2)c2ccc(C#N)cc2)nc1C(=O)NS(C)(=O)=O [Compound 653, 2-[N-[(4-bromophenyl)methyl]-4-cyano-anilino]-5-ethyl-N-methylsulfonyl-oxazole-4-carboxamide] | 50.1 | 158 |
| COc1ccc(F)cc1CN(c1ccc(C#N)cc1)c1nc(C(=O)NS(C)(=O)=O)c(C)s1 [Compound 105, 2-[4-cyano-N-[(5-fluoro-2-methoxy-phenyl)methyl]anilino]-5-methyl-N-methylsulfonyl-thiazole-4-carboxamide] | 126 | 316 |
| Cc1sc(N(CCn2cc(C#N)cn2)Cc2ccccc2)nc1C(=O)NS(C)(=O)=O [Compound 326, 2-[benzyl-[2-(4-cyanopyrazol-1-yl)ethyl]amino]-5-methyl-N-methylsulfonyl-thiazole-4-carboxamide] | 631 | 1000 |
| Cc1sc(N(Cc2ccccc2)c2ccc(C#N)cc2F)nc1C(=O)NS(C)(=O)=O [Compound 487, 2-(N-benzyl-4-cyano-2-fluoro-anilino)-5-methyl-N-methylsulfonyl-thiazole-4-carboxamide] | 79.4 | 158 |
| Cc1sc(N(CCC2CCCC2)c2ccc(C#N)cc2)nc1C(=O)NS(C)(=O)=O [Compound 78, 2-[4-cyano-N-(2-cyclopentylethyl)anilino]-5-methyl-N-methylsulfonyl-thiazole-4-carboxamide] | 25.1 | 158 |

The next lines start with the values.

| EC50 [1] [nM] | EC50 [2] [nM] | SMILES |
| --- | --- | --- |
| 39.8 | 25.1 | Cc1sc(N(Cc2ccc(C(F)F)cc2)c2ccc(C#N)cc2)nc1C(=O)NS(C)(=O)=O [Compound 94, 2-[4-cyano-N-[[4-(difluoromethyl)phenyl]methyl]anilino]-5-methyl-N-methylsulfonyl-thiazole-4-carboxamide] |
| 39.8 | 100 | COCCCS(=O)(=O)NC(=O)c1nc(N(Cc2ccc(OC(F)F)c(F)c2)c2ccc(C#N)cc2)sc1C [Compound 526, 2-[4-cyano-N-[[4-(difluoromethoxy)-3-fluoro-phenyl]methyl]anilino]-N-(3-methoxypropylsulfonyl)-5-methyl-thiazole-4-carboxamide] |
| 251 | 631 | COCCCS(=O)(=O)NC(=O)c1nc(N(Cc2ccc(C(F)(F)F)nc2)c2ccc(C#N)cc2)sc1C [Compound 164, 2-[4-cyano-N-[[6-(trifluoromethyl)-3-pyridyl]methyl]anilino]-N-(3-methoxypropylsulfonyl)-5-methyl-thiazole-4-carboxamide] |
| 126 | 398 | Cc1sc(N(Cc2ccc(OC(F)F)cc2)c2ccc(C(F)(F)F)nc2)nc1C(=O)NS(C)(=O)=O [Compound 472, 2-[[4-(difluoromethoxy)phenyl]methyl-[6-(trifluoromethyl)-3-pyridyl]amino]-5-methyl-N-methylsulfonyl-thiazole-4-carboxamide] |
| 25.1 | 2000 | Cc1sc(N(CCc2ccc(C#N)cc2)Cc2ccc(OC(F)(F)F)cc2)nc1C(=O)NS(=O)(=O)Cc1ccncc1 [Compound 742, 2-[2-(4-cyanophenyl)ethyl-[[4-(trifluoromethoxy)phenyl]methyl]amino]-5-methyl-N-(4-pyridylmethylsulfonyl)thiazole-4-carboxamide] |
| 158 | 1580 | Cc1sc(N(CCc2ccc(Cl)cc2)c2ccc(C#N)cc2)nc1C(=O)NS(C)(=O)=O [Compound 133, 2-[N-[2-(4-chlorophenyl)ethyl]-4-cyano-anilino]-5-methyl-N-methylsulfonyl-thiazole-4-carboxamide] |
| 200 | 200 | Cc1sc(N(Cc2ccc(C(F)(F)F)nc2)c2ccc(C#N)cc2)nc1C(=O)NS(C)(=O)=O [Compound 154, 2-[4-cyano-N-[[6-(trifluoromethyl)-3-pyridyl]methyl]anilino]-5-methyl-N-methylsulfonyl-thiazole-4-carboxamide] |
| 25.1 | 316 | Cc1sc(N(Cc2ccc(OC(F)(F)F)cc2)c2ccc(C#N)cc2)nc1C(=O)NS(=O)(=O)CCCO [Example 200, 2-[4-cyano-N-[[4-(trifluoromethoxy)phenyl]methyl]anilino]-N-(3-hydroxypropylsulfonyl)-5-methyl-thiazole-4-carboxamide] |
| 20 | 126 | Cc1sc(N(Cc2ccc(OC(F)(F)F)cc2)c2ccc(C#N)cc2)nc1C(=O)NS(=O)(=O)Cc1ccncc1 [Compound 500, 2-[4-cyano-N-[[4-(trifluoromethoxy)phenyl]methyl]anilino]-5-methyl-N-(4-pyridylmethylsulfonyl)thiazole-4-carboxamide] |
| 126 | 631 | COCCCS(=O)(=O)NC(=O)c1nc(N(Cc2ncc(C(F)(F)F)cc2F)c2ccc(C#N)cc2)sc1C [Example 171, 2-[4-cyano-N-[[3-fluoro-5-(trifluoromethyl)-2-pyridyl]methyl]anilino]-N-(3-methoxypropylsulfonyl)-5-methyl-thiazole-4-carboxamide] |
